From paper PMC7914897, “Cytotoxic Potential of a-Azepano- and 3-Amino-3,4-SeCo-Triterpenoids” (International Journal of Molecular Sciences, 2021)

How the values were obtained:
[1] = test system: NCI/ADR-RES (Ovarian cancer); experiment: NCI-60 screen (SRB, 48 h); details: Homo sapiens
OVCAR-4 (Ovarian cancer) = experiment: NCI-60 screen (SRB, 48 h); assay type: cell-based; details: Homo sapiens
HOP-92 (NSC lung cancer) = experiment: NCI-60 screen (SRB, 48 h); details: Homo sapiens
NSC lung cancer subpanel = experiment: NCI-60 screen, subpanel; details: Homo sapiens
K-562 (Leukemia) = experiment: NCI-60 screen (SRB, 48 h); details: Homo sapiens
SF-295 (CNS cancer) = experiment: NCI-60 screen (SRB, 48 h); details: Homo sapiens
UO-31 (Renal cancer) = experiment: NCI-60 screen (SRB, 48 h); details: Homo sapiens
A498 (Renal cancer) = experiment: NCI-60 screen (SRB, 48 h); details: Homo sapiens
UACC-257 (Melanoma) = experiment: NCI-60 screen (SRB, 48 h); details: Homo sapiens
IGROV1 (Ovarian cancer) = experiment: NCI-60 screen (SRB, 48 h); details: Homo sapiens
Colon Cancer subpanel = experiment: NCI-60 screen, subpanel; details: Homo sapiens
SR (Leukemia) = experiment: NCI-60 screen (SRB, 48 h); assay type: cell-based
HCT-116 (Colon cancer) = experiment: NCI-60 screen (SRB, 48 h); details: Homo sapiens
LOX IMVI (Melanoma) = experiment: NCI-60 screen (SRB, 48 h); assay type: cell-based; details: Homo sapiens
HCT-15 (Colon cancer) = experiment: NCI-60 screen (SRB, 48 h); details: Homo sapiens
[2] = test system: NCI-H522 (NSC lung cancer); experiment: NCI-60 screen (SRB, 48 h); details: Homo sapiens
BT-549 (Breast cancer) = experiment: NCI-60 screen (SRB, 48 h); assay type: cell-based; details: Homo sapiens
RXF 393 (Renal cancer) = experiment: NCI-60 screen (SRB, 48 h); details: Homo sapiens
KM12 (Colon cancer) = experiment: NCI-60 screen (SRB, 48 h); details: Homo sapiens
HT29 (Colon cancer) = experiment: NCI-60 screen (SRB, 48 h); details: Homo sapiens
DU-145 (Prostate cancer) = experiment: NCI-60 screen (SRB, 48 h); details: Homo sapiens
T-47D (Breast cancer) = experiment: NCI-60 screen (SRB, 48 h); details: Homo sapiens, T47D

C[C@H]1[C@H](C)CC[C@]2(CO)CC[C@]3(C)C(=CC[C@@H]4[C@@]5(C)CCCNC(C)(C)[C@@H]5CC[C@]43C)[C@H]12 [Compound 4, azepanouvaol]
GI50 [1]: 1.76 µM | IC (TGI) ([1]; 48 h, read-out: TGI): 3.47 µM | CC50 ([1]; read-out: LC50): 6.84 µM | IC (TGI) (OVCAR-4 (Ovarian cancer); OVCAR-4, 48 h): 3.79 µM | GI50 (OVCAR-4 (Ovarian cancer); OVCAR-4, read-out: GI50): 1.72 µM | GI50 (HOP-92 (NSC lung cancer); HOP-92): 1.52 µM | IC (TGI) (HOP-92 (NSC lung cancer); HOP-92, 48 h, read-out: TGI): 3.19 µM | CC50 (HOP-92 (NSC lung cancer); HOP-92, read-out: LC50): 6.67 µM | IC (TGI) (NSC lung cancer subpanel; 48 h, read-out: TGI MG_MID): 3.4 µM | GI50 (NSC lung cancer subpanel; read-out: GI50 MG_MID): 1.74 µM | CC50 (NSC lung cancer subpanel; read-out: LC50 MG_MID): 6.37 µM | GI50 (K-562 (Leukemia); K562): 0.47 µM | IC (TGI) (K-562 (Leukemia); K562, 48 h, read-out: TGI): 2.02 µM | CC50 (K-562 (Leukemia); K562, read-out: LC50): 6.68 µM | GI50 (SF-295 (CNS cancer); SF-295): 1.64 µM | IC (TGI) (SF-295 (CNS cancer); SF-295, 48 h, read-out: TGI): 3.06 µM | CC50 (SF-295 (CNS cancer); SF-295, read-out: LC50): 5.72 µM | GI50 (UO-31 (Renal cancer); UO-31): 1.54 µM | IC (TGI) (UO-31 (Renal cancer); UO-31, 48 h, read-out: TGI): 2.99 µM | CC50 (UO-31 (Renal cancer); UO-31, read-out: LC50): 5.79 µM | GI50 (A498 (Renal cancer); A498): 1.63 µM | IC (TGI) (A498 (Renal cancer); A498, 48 h, read-out: TGI): 3.29 µM | CC50 (A498 (Renal cancer); A498, read-out: LC50): 6.63 µM | GI50 (UACC-257 (Melanoma); UACC-257): 1.95 µM | IC (TGI) (UACC-257 (Melanoma); UACC-257, 48 h, read-out: TGI): 3.7 µM | CC50 (UACC-257 (Melanoma); UACC-257, read-out: LC50): 7.01 µM | GI50 (IGROV1 (Ovarian cancer); IGROV-1): 1.85 µM | IC (TGI) (IGROV1 (Ovarian cancer); IGROV-1, 48 h, read-out: TGI): 3.72 µM | CC50 (IGROV1 (Ovarian cancer); IGROV-1, read-out: LC50): 7.45 µM | IC (TGI) (Colon Cancer subpanel; 48 h, read-out: TGI MG_MID): 3.07 µM | GI50 (Colon Cancer subpanel; read-out: GI50 MG_MID): 1.52 µM | CC50 (Colon Cancer subpanel; read-out: LC50 MG_MID): 6.16 µM | TGI (SR (Leukemia)): 3.13 µM | GI50 (SR (Leukemia); Homo sapiens): 1.18 µM | GI50 (HCT-116 (Colon cancer); HCT-116): 1.49 µM | activity at 10 µM (HCT-116 (Colon cancer); HCT-116, 48 h, read-out: Growth % of the Most Sensitive Cell Lines): -94.7% | IC (TGI) (HCT-116 (Colon cancer); HCT-116, 48 h, read-out: TGI): 2.81 µM | CC50 (HCT-116 (Colon cancer); HCT-116, read-out: LC50): 5.31 µM | GI50 (LOX IMVI (Melanoma)): 1.59 µM | IC (TGI) (LOX IMVI (Melanoma); 48 h): 3.05 µM | activity at 10 µM (LOX IMVI (Melanoma); 48 h, 1 dose 10 µM, read-out: Growth % of the Most Sensitive Cell Lines): -94.9% | CC50 (LOX IMVI (Melanoma); read-out: LC50 (the source's name)): 5.84 µM | GI50 (HCT-15 (Colon cancer); HCT-15): 1.39 µM | IC (TGI) (HCT-15 (Colon cancer); HCT-15, 48 h, read-out: TGI): 2.75 µM | CC50 (HCT-15 (Colon cancer); HCT-15, read-out: LC50): 5.52 µM | GI50 ([2]; NCI-H522): 1.71 µM | IC (TGI) ([2]; NCI-H522, 48 h, read-out: TGI): 3.32 µM | CC50 ([2]; NCI-H522, read-out: LC50): 6.43 µM | GI50 (BT-549 (Breast cancer); BT-549): 1.55 µM | IC (TGI) (BT-549 (Breast cancer); BT-549, 48 h): 2.96 µM | GI50 (RXF 393 (Renal cancer); RXF 393): 1.81 µM | IC (TGI) (RXF 393 (Renal cancer); RXF 393, 48 h, read-out: TGI): 3.51 µM | CC50 (RXF 393 (Renal cancer); RXF 393, read-out: LC50): 6.79 µM | GI50 (KM12 (Colon cancer); KM12): 1.84 µM | IC (TGI) (KM12 (Colon cancer); KM12, 48 h, read-out: TGI): 3.51 µM | CC50 (KM12 (Colon cancer); KM12, read-out: LC50): 6.68 µM | GI50 (HT29 (Colon cancer); HT-29): 0.63 µM | IC (TGI) (HT29 (Colon cancer); HT-29, 48 h, read-out: TGI): 1.97 µM | CC50 (HT29 (Colon cancer); HT-29, read-out: LC50): 4.85 µM | GI50 (DU-145 (Prostate cancer); DU-145): 1.72 µM | IC (TGI) (DU-145 (Prostate cancer); DU-145, 48 h, read-out: TGI): 3.14 µM | CC50 (DU-145 (Prostate cancer); DU-145, read-out: LC50): 5.75 µM | GI50 (T-47D (Breast cancer)): 1.68 µM | IC (TGI) (T-47D (Breast cancer); 48 h, read-out: TGI): 4.03 µM | CC50 (T-47D (Breast cancer); read-out: LC50): 9.66 µM
